Reference: PMC4300089, “Structure-Guided Design of Selective Epac1 and Epac2 Agonists” (PLoS Biology, 2015)
Residue numbers refer to the chain shown, from its start. Values joined by “and” are separate entries in the source; they are usually repeats but may differ in a detail not shown here. Identical values can stand only once.

What was measured:
Type in all cases: biochemical
[1] = target: T1, Epac2^Δ280 (Mus musculus, UniProt Q9EQZ6); assay: Epac activation assay (Rap1B•mGDP fluorescence nucleotide exchange), Epac2^Δ280; settings: for AC50 / Rel. kmax: Epac2^Δ280; for Rel. kmax: maximal activity relative to cAMP
T1 construct: made in house
T1 sequence (Q9EQZ6 281-993 isoform Q9EQZ6-3): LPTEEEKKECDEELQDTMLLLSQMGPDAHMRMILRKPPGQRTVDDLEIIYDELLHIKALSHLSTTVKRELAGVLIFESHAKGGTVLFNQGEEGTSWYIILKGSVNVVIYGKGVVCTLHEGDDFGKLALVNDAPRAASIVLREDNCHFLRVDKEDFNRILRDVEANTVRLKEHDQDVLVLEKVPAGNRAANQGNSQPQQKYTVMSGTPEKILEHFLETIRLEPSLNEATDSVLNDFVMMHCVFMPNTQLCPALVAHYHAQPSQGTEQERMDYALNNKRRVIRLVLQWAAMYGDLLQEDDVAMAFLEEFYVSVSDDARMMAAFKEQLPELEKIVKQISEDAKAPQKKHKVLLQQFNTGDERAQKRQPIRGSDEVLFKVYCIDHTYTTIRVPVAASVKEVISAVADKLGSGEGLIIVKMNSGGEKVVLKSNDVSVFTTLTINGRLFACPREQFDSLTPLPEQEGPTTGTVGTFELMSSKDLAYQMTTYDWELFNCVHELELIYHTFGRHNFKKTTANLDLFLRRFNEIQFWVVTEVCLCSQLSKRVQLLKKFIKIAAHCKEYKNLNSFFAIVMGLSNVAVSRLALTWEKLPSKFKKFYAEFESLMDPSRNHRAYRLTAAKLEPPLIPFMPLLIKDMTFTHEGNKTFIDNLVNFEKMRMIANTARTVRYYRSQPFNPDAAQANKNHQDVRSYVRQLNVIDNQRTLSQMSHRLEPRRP
Protocol: (§1) Murine Epac2 was used as all previous structural studies were performed with it.
(§2) The activity of Epac was determined by a fluorescence assay. […] The fluorescence intensity of Rap1B•mGDP is approximately twice that of free mGDP, and thus, nucleotide exchange can be observed as a decay in fluorescence upon the addition of excess unlabeled GDP.

[2] = target: T2, PKA-Iβ (Homo sapiens, UniProt P31321); assay: PKA activity assay, PKA-Iβ; settings: for A (PKA activity): PKAIβ
T2 construct: made in house
T2 sequence (P31321 whole entry): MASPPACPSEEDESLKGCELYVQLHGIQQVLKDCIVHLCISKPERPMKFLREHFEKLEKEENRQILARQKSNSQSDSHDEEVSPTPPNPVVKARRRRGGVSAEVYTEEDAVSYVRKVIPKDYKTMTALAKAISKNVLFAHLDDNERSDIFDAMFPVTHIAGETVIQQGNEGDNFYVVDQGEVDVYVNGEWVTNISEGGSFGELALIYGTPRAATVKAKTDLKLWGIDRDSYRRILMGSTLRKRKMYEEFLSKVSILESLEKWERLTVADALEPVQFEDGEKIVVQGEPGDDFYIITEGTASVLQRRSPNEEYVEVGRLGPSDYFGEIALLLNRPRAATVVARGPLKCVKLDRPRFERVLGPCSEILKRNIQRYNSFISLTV
Protocol: (§3) The recombinant human PKA catalytic subunit (Cα1) and the four human PKA regulatory subunits (RIα, RIβ, RIIα, RIIβ) were expressed, purified, and characterized as described. […] PKA holoenzymes were formed by mixing the R- and C-subunit at a molar ratio of 1.2:1 and extensive dialysis against 20 mM MOPS (pH 7.0), 150 mM NaCl, 2.5 mM β-mercaptoethanol, supplemented with 1 mM ATP and 10 mM MgCl2 for PKA-I at 4°C overnight. PKA holoenzymes were used at about 20 nM for the activation assay. The apparent activation constants (Kact) were determined by fitting the concentration-dependent activity to a sigmoid dose-response model.

[3] = target: T3, PKA-IIβ (Homo sapiens, UniProt P31323); assay: PKA activity assay, PKA-IIβ; settings: for A (PKA activity): PKAIIβ
T3 construct: made in house
T3 sequence (P31323 whole entry): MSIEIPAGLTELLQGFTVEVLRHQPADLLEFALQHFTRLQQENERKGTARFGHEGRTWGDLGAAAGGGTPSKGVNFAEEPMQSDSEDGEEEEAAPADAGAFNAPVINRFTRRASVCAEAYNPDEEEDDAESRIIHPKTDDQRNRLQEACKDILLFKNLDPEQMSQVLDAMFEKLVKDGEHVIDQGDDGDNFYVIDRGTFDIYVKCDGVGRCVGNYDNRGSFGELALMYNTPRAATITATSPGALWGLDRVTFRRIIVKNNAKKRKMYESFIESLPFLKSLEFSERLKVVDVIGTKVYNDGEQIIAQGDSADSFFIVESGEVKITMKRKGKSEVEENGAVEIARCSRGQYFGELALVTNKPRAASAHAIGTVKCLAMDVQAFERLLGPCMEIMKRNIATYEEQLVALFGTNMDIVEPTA
Protocol: as §3

[4] = target: T4, Epac2^Δ280,K450E (Mus musculus, UniProt Q9EQZ6, K468E); assay: Epac activation assay, Epac2 K450E mutant
T4 construct: made in house
T4 sequence (Q9EQZ6 281-993 isoform Q9EQZ6-3 K450E): T1 sequence (Q9EQZ6 281-993 isoform Q9EQZ6-3) with K170E
Protocol: as §1, §2

Compound: COC1C2OP(=O)(O)OCC2OC1n1c(Sc2ccc(Cl)cc2)nc2c(N)ncnc21 [D-007, 8-pCPT-2′-O-Me-cAMP, reference compound]
- AC50 [1]: 3.5 µM
- Rel. kmax [1]: 0.8
- EC50 ([2]; PKA-Iβ, read-out: Kact): 18 µM
- A (PKA activity) ([2]; concentration 1 μM): 5.38 U/mg
- A (PKA activity) ([2]; concentration 1.00E+01 μM): 9.18 U/mg
- A (PKA activity) ([2]; concentration 1.00E+03 μM): 1.84E+01 U/mg
- A (PKA activity) ([2]; concentration 1.00E-01 μM): 5.43 U/mg
- A (PKA activity) ([2]; concentration 1.00E-03 μM): 4.7 U/mg
- A (PKA activity) ([2]; concentration 1.00E-05 μM): 4.53 U/mg
- A (PKA activity) ([2]; concentration 2.50E+01 μM): 1.31E+01 U/mg
- A (PKA activity) ([2]; concentration 2.50E+02 μM): 1.60E+01 U/mg
- A (PKA activity) ([2]; concentration 2.50E+03 μM): 1.79E+01 U/mg
- EC50 ([3]; PKA-IIβ, read-out: Kact): 50 µM
- A (PKA activity) ([3]; concentration 1 μM): 6.99 U/mg
- A (PKA activity) ([3]; concentration 1.00E+01 μM): 1.06E+01 U/mg
- A (PKA activity) ([3]; concentration 1.00E-01 μM): 6.554 U/mg
- A (PKA activity) ([3]; concentration 1.00E-05 μM): 2.8563 U/mg
- A (PKA activity) ([3]; concentration 2.50E+02 μM): 1.60E+01 U/mg
- A (PKA activity) ([3]; concentration 5.00E+01 μM): 1.46E+01 U/mg
- A (PKA activity) ([3]; concentration 5.00E+02 μM): 1.87E+01 U/mg

Compound: Nc1ncnc2c1nc(Sc1ccc(Cl)cc1)n2[C@@H]1O[C@@H]2COP(=O)(O)O[C@H]2[C@H]1O [L-026, 8-pCPT-cAMP]
- AC50 [1]: 0.08 µM
- Rel. kmax [1]: 0.5

Compound: Nc1ncnc2c1ncn2C1OC2COP(O)(=S)OC2C1O (stereo not drawn) [S-000, Sp-cAMPS]
- kobs ([1]; 0.01 μM compound): 2.4e-05 s⁻¹
- kobs ([1]; 0.05 μM compound): 3.7e-05 s⁻¹
- kobs ([1]; 0.08 μM compound): 4.4e-05 s⁻¹
- kobs ([1]; 0.1 μM compound): 4.8e-05 s⁻¹
- kobs ([1]; 0.2 μM compound): 7.3e-05 s⁻¹
- kobs ([1]; 0.3 μM compound): 9.9e-05 s⁻¹
- kobs ([1]; 0.4 μM compound): 0.000122 s⁻¹
- kobs ([1]; 0.5 μM compound): 0.000139 s⁻¹
- kobs ([1]; 0.6 μM compound): 0.000141 s⁻¹
- kobs ([1]; 0.7 μM compound): 0.000159 s⁻¹
- kobs ([1]; 0.8 μM compound): 0.000171 s⁻¹
- kobs ([1]; 1 μM compound): 0.000175 s⁻¹
- kobs ([1]; 2 μM compound): 0.000357 s⁻¹
- kobs ([1]; 3 μM compound): 0.000431 s⁻¹
- kobs ([1]; 4 μM compound): 0.000482 s⁻¹
- kobs ([1]; 5 μM compound): 0.000505 s⁻¹
- kobs ([1]; 6 μM compound): 0.000495 s⁻¹
- kobs ([1]; 7 μM compound): 0.000524 s⁻¹
- kobs ([1]; 8 μM compound): 0.000525 s⁻¹
- kobs ([1]; 10 μM compound): 0.000559 s⁻¹
- kobs ([1]; 20 μM compound): 0.0007 s⁻¹
- kobs ([1]; 30 μM compound): 0.000741 s⁻¹
- kobs ([1]; 40 μM compound): 0.000742 s⁻¹
- kobs ([1]; 50 μM compound): 0.000724 s⁻¹
- kobs ([1]; 60 μM compound): 0.000763 s⁻¹
- kobs ([1]; 70 μM compound): 0.000779 s⁻¹
- kobs ([1]; 80 μM compound): 0.000793 s⁻¹
- kobs ([1]; 100 μM compound): 0.000771 s⁻¹
- AC50 [1]: 2.8 µM
- Rel. kmax [1]: 2.5
- kobs ([4]; 0.01 μM compound): 4.6e-05 s⁻¹
- kobs ([4]; 0.05 μM compound): 6.3e-05 s⁻¹
- kobs ([4]; 0.08 μM compound): 7.4e-05 s⁻¹
- kobs ([4]; 0.1 μM compound): 8e-05 s⁻¹ and 9.8e-05 s⁻¹
- kobs ([4]; 0.3 μM compound): 0.000139 s⁻¹
- kobs ([4]; 0.4 μM compound): 0.000171 s⁻¹
- kobs ([4]; 0.5 μM compound): 0.000194 s⁻¹
- kobs ([4]; 0.6 μM compound): 0.000231 s⁻¹
- kobs ([4]; 0.7 μM compound): 0.000249 s⁻¹
- kobs ([4]; 0.8 μM compound): 0.000268 s⁻¹
- kobs ([4]; 1 μM compound): 0.000297 s⁻¹
- kobs ([4]; 2 μM compound): 0.000427 s⁻¹
- kobs ([4]; 3 μM compound): 0.000527 s⁻¹
- kobs ([4]; 4 μM compound): 0.000575 s⁻¹
- kobs ([4]; 5 μM compound): 0.000593 s⁻¹
- kobs ([4]; 6 μM compound): 0.000641 s⁻¹
- kobs ([4]; 7 μM compound): 0.000636 s⁻¹
- kobs ([4]; 8 μM compound): 0.00067 s⁻¹
- kobs ([4]; 10 μM compound): 0.000647 s⁻¹
- kobs ([4]; 20 μM compound): 0.000817 s⁻¹
- kobs ([4]; 30 μM compound): 0.000851 s⁻¹
- kobs ([4]; 40 μM compound): 0.00083 s⁻¹
- kobs ([4]; 50 μM compound): 0.000833 s⁻¹
- kobs ([4]; 60 μM compound): 0.000819 s⁻¹
- kobs ([4]; 70 μM compound): 0.000826 s⁻¹
- kobs ([4]; 80 μM compound): 0.000827 s⁻¹
- kobs ([4]; 100 μM compound): 0.000823 s⁻¹

Compound: Cc1ccc(CSc2nc3c(N)ncnc3n2[C@@H]2O[C@@H]3CO[P@](O)(=S)O[C@H]3[C@H]2O)cc1 [S-230, Sp-8-pMeBnT-cAMPS]
- kobs ([1]; 0.01 μM compound): 3.1e-05 s⁻¹
- kobs ([1]; 0.03 μM compound): 5.1e-05 s⁻¹
- kobs ([1]; 0.04 μM compound): 5.8e-05 s⁻¹
- kobs ([1]; 0.05 μM compound): 6.5e-05 s⁻¹
- kobs ([1]; 0.06 μM compound): 6.9e-05 s⁻¹
- kobs ([1]; 0.07 μM compound): 7.9e-05 s⁻¹
- kobs ([1]; 0.08 μM compound): 8.9e-05 s⁻¹
- kobs ([1]; 0.1 μM compound): 0.000108 s⁻¹
- kobs ([1]; 0.2 μM compound): 0.000191 s⁻¹
- kobs ([1]; 0.3 μM compound): 0.000259 s⁻¹
- kobs ([1]; 0.4 μM compound): 0.000337 s⁻¹
- kobs ([1]; 0.5 μM compound): 0.000361 s⁻¹
- kobs ([1]; 0.6 μM compound): 0.000448 s⁻¹
- kobs ([1]; 0.7 μM compound): 0.000484 s⁻¹
- kobs ([1]; 0.8 μM compound): 0.000517 s⁻¹
- kobs ([1]; 1 μM compound): 0.000599 s⁻¹
- kobs ([1]; 2 μM compound): 0.000852 s⁻¹
- kobs ([1]; 3 μM compound): 0.00104 s⁻¹
- kobs ([1]; 4 μM compound): 0.00107 s⁻¹
- kobs ([1]; 5 μM compound): 0.00111 s⁻¹
- kobs ([1]; 6 μM compound): 0.00117 s⁻¹
- kobs ([1]; 7 μM compound): 0.00124 s⁻¹
- kobs ([1]; 8 μM compound): 0.00123 s⁻¹
- kobs ([1]; 10 μM compound): 0.00132 s⁻¹
- kobs ([1]; 20 μM compound): 0.00148 s⁻¹
- kobs ([1]; 30 μM compound): 0.00149 s⁻¹
- kobs ([1]; 40 μM compound): 0.00149 s⁻¹
- kobs ([1]; 50 μM compound): 0.00145 s⁻¹
- kobs ([1]; 60 μM compound): 0.00145 s⁻¹
- kobs ([1]; 70 μM compound): 0.00142 s⁻¹
- kobs ([1]; 80 μM compound): 0.00143 s⁻¹
- kobs ([1]; 100 μM compound): 0.00145 s⁻¹
- AC50 [1]: 0.07 µM
- Rel. kmax [1]: 6.4
- A (PKA activity) ([2]; concentration 1.00E+01 μM): 2.81 U/mg
- A (PKA activity) ([2]; concentration 1.00E-01 μM): 5.21 U/mg
- A (PKA activity) ([2]; concentration 1.00E-03 μM): 4.71 U/mg
- A (PKA activity) ([2]; concentration 1.00E-05 μM): 4.53 U/mg
- A (PKA activity) ([2]; concentration 2.50E+02 μM): 3.19 U/mg
- A (PKA activity) ([3]; concentration 1 μM): 2.854 U/mg
- A (PKA activity) ([3]; concentration 1.00E+01 μM): 3.182 U/mg
- A (PKA activity) ([3]; concentration 1.00E-01 μM): 1.472 U/mg
- A (PKA activity) ([3]; concentration 1.00E-02 μM): 1.965 U/mg
- A (PKA activity) ([3]; concentration 1.00E-03 μM): 1.941 U/mg
- A (PKA activity) ([3]; concentration 1.00E-05 μM): 2.019 U/mg
- A (PKA activity) ([3]; concentration 5.00E+01 μM): 6.801 U/mg
- A (PKA activity) ([3]; concentration 5.00E+02 μM): 9.038 U/mg
